Our source for the Emax and EC50 values is patent US20250017935A1, “7,8-DIHYDRO-5H-1,6-NAPHTHYRIDINE DERIVATIVES AS POSITIVE ALLOSTERIC MODULATORS OF THE MUSCARINIC ACETYLCHOLINE RECEPTOR M4 FOR TREATING NEUROLOGICAL AND PSYCHIATRIC DISORDERS” (Vanderbilt University, priority 2021, published 2025).

The target of this experiment is T1, Human M4 (Homo sapiens, UniProt P08173).
T1 construct: expressed in transfected cells; host or cells: CHO-K1 (ATCC), stably expressing hM4 and Gqi5
T1 sequence (P08173 1-479): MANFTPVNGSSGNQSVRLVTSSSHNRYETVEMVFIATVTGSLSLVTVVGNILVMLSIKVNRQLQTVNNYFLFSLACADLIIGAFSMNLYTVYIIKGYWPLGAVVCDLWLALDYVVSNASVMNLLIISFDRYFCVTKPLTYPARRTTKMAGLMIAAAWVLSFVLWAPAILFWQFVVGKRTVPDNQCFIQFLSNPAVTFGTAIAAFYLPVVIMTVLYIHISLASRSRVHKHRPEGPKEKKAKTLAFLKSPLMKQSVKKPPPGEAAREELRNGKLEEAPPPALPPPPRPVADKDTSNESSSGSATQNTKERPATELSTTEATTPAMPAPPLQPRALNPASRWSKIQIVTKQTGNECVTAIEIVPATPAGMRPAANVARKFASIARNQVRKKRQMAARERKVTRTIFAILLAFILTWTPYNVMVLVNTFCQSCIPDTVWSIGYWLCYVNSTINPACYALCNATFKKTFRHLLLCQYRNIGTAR
The experiment is described as follows: mAChR M4 cell-based functional assay (calcium flux, potentiation of EC20 acetylcholine response) in hM4-Gqi5 CHO-K1 cells. Particulars: for Emax at 30 µM: % ACh maximum at 30 μM, human M4 CHO-K1 cells; for EC50: CHO-K1 cells transfected with human M4 and Gqi5, positive allosteric modulator activity, EC20 acetylcholine. As to the method:
Human M4 cDNA, along with the chimeric G protein Gqi5, were transfected into Chinese hamster ovary (CHO-K1) cells purchased from the American Type Culture Collection using commercially available Lipofectamine 2000 transfection reagent (Dalby, B. et al., Methods (2004) 33(2), 95-103). hM4-Gqi5 cells were grown in Ham's F-12 medium containing 10% heat-inactivated fetal bovine serum (FBS), 20 mM HEPES, 50 μg/mL G418 sulfate (CAS #108321-42-2), and 500 μg/mL Hygromycin B. rM4-Gqi5 cells were grown in DMEM containing 10% heat-inactivated FBS, 20 mM HEPES, 400 μg/mL G418 sulfate, and 500 μg/mL Hygromycin B.
For high throughput measurement of agonist-evoked increases in intracellular calcium, CHO-K1 cells stably expressing muscarinic receptors were plated in growth medium lacking G418 sulfate and hygromycin at 15,000 cells/20 μL/well in Greiner 384-well black-walled, tissue culture (TC)-treated, clear-bottom plates (VWR). Cells were incubated overnight at 37° C. and 5% CO2. The next day, cells were washed using an ELX 405 (BioTek) with assay buffer; the final volume was then aspirated to 20 μL. Next, 20 μL of a 2.3 μM stock of Fluo-4/acetoxymethyl ester (Invitrogen, Carlsbad, CA), prepared as a 2.3 mM stock in DMSO and mixed in a 1:1 ratio with 10% (w/v) Pluronic F-127 and diluted in assay buffer, was added to the wells and the cell plates were incubated for 50 minutes at 37° C. and 5% CO2. Dye was removed by washing with the ELX 405 and the final volume was aspirated to 20 μL. Compound master plates were formatted in an 11 point concentration-response curve (CRC) format (1:3 dilutions) in 100% DMSO with a starting concentration of 10 mM using a BRAVO liquid handler (Agilent). Test compound CRCs were then transferred to daughter plates (240 nL) using the Echo acoustic plate reformatter (Labcyte, Sunnyvale, CA) and then diluted into assay buffer (40 μL) to a 2× stock using a Thermo Fisher Combi (Thermo Fisher Scientific, Waltham, MA).
Calcium flux was measured using the Functional Drug Screening System (FDSS) 6000 or 7000 (Hamamatsu Corporation, Tokyo, Japan) as an increase in the fluorescent static ratio. Compounds were applied to cells (20 μL, 2×) using the automated system of the FDSS at 2-4 seconds into the protocol and the data were collected at 1 Hz. […] Agonist activity was analyzed as a concentration-dependent increase in calcium mobilization upon compound addition. Positive allosteric modulator activity was analyzed as a concentration-dependent increase in the EC20 acetylcholine response. With the acetylcholine EC20 set as baseline, the test compound EC50 is determined as the concentration that produces an increase above baseline of 50% of the maximum increase in acetylcholine response elicted by the test compound. Antagonist activity was analyzed as a concentration-dependent decrease in the EC80 acetylcholine response. Concentration-response curves were generated using a four-parameter logistical equation in XLFit curve fitting software (IDBS, Bridgewater, NJ) for Excel (Microsoft, Redmond, WA) or Prism (GraphPad Software, Inc., San Diego, CA).
Compounds were synthesized as described above. Activity (EC50 and Emax) was determined in the mAChR M4 cell-based functional assay as described above and the data are shown in Table 5. The compound numbers correspond to the compound numbers used in Examples 1-13 and Tables 1, 2, and 3.
(In general: A change in cytosolic calcium serves as a functional read-out for many receptors and channels.)

Take `Cc1nn(C)cc1-c1cnc2c(c1)CN(c1ncnc3c(C)csc13)CC2` [Compound 23, 4-[3-(1,3-dimethylpyrazol-4-yl)-7,8-dihydro-5H-1,6-naphthyridin-6-yl]-7-methyl-thieno[3,2-d]pyrimidine]: the Emax (as a rule, the greatest response seen or fitted, relative to the assay's reference) at 30 µM is 59% and the EC50 (commonly the midpoint of the concentration-response curve) is 0.56 µM.
On to `Cc1csc2c(N3CCc4ncc(N5CCOc6ncccc65)cc4C3)ncnc12` [Compound 24, 1-[6-(7-methylthieno[3,2-d]pyrimidin-4-yl)-7,8-dihydro-5H-1,6-naphthyridin-3-yl]-2,3-dihydropyrido[2,3-b][1,4]oxazine], for which the Emax at 30 µM amounted to 70% and the concentration giving a half-maximal response (EC50) came to 0.22 µM.
Consider `Cc1csc2ncnc(N3CCc4ncc(N5CCCn6nccc65)cc4C3)c12` [Compound 25, 4-[3-(6,7-dihydro-5H-pyrazolo[1,5-a]pyrimidin-4-yl)-7,8-dihydro-5H-1,6-naphthyridin-6-yl]-5-methyl-thieno[2,3-d]pyrimidine], for which the Emax at 30 µM was 96% and the EC50 turned out to be 0.06 µM.
For the molecule `Cc1csc2ncnc(N3CCc4ncc(-c5cnn(C6CC6)c5)cc4C3)c12` [Compound 26, 4-[3-(1-cyclopropylpyrazol-4-yl)-7,8-dihydro-5H-1,6-naphthyridin-6-yl]-5-methyl-thieno[2,3-d]pyrimidine], the Emax at 30 µM came out at 75% and the EC50 stood at 0.28 µM.
With `Cc1ccc(F)c(Oc2cnc3c(c2)CN(c2ncnc4ccsc24)CC3)c1` [Compound 27, 4-[3-(2-fluoro-5-methyl-phenoxy)-7,8-dihydro-5H-1,6-naphthyridin-6-yl]thieno[3,2-d]pyrimidine], the Emax at 30 µM is 36% and the EC50 was 2.38 µM.
In the same order, the values of `Cc1nn(C)cc1-c1cnc2c(c1)CN(c1ncnc3scc(C)c13)CC2` [Compound 28, 4-[3-(1,3-dimethylpyrazol-4-yl)-7,8-dihydro-5H-1,6-naphthyridin-6-yl]-5-methyl-thieno[2,3-d]pyrimidine] are 78% and 0.09 µM.
For `FC(F)(F)c1cnc2c(c1)CN(c1ncnc3scc(Br)c13)CC2` [Compound 29, 5-bromo-4-[3-(trifluoromethyl)-7,8-dihydro-5H-1,6-naphthyridin-6-yl]thieno[2,3-d]pyrimidine], the Emax at 30 µM worked out at 74% and the EC50 came out at 0.31 µM.
As to `FC(F)(F)c1cnc2c(c1)CN(c1ncnc3sc(Br)cc13)CC2` [Compound 30, 6-bromo-4-[3-(trifluoromethyl)-7,8-dihydro-5H-1,6-naphthyridin-6-yl]thieno[2,3-d]pyrimidine], the maximal effect (Emax) at 30 µM worked out at 88% and the EC50 was 0.08 µM.
Consider `CC(C)c1cc2c(N3CCc4ncc(N5CCCn6nccc65)cc4C3)ncnc2s1` [Compound 31, 4-[3-(6,7-dihydro-5H-pyrazolo[1,5-a]pyrimidin-4-yl)-7,8-dihydro-5H-1,6-naphthyridin-6-yl]-6-isopropyl-thieno[2,3-d]pyrimidine], for which the Emax at 30 µM was 58% and the EC50 is 0.44 µM.
As for `Cc1csc2ncnc(N3CCc4ncc(Oc5ccccc5F)cc4C3)c12` [Compound 32, 4-[3-(2-fluorophenoxy)-7,8-dihydro-5H-1,6-naphthyridin-6-yl]-5-methyl-thieno[2,3-d]pyrimidine], the Emax at 30 µM worked out at 59% and the EC50 came to 0.56 µM.
Consider `Fc1ccccc1Oc1cnc2c(c1)CN(c1ncnc3sccc13)CC2` [Compound 33, 4-[3-(2-fluorophenoxy)-7,8-dihydro-5H-1,6-naphthyridin-6-yl]thieno[2,3-d]pyrimidine], for which the Emax at 30 µM came out at 46% and the EC50 amounted to 0.2 µM.
Turning to `Cn1nccc1Nc1cnc2c(c1)CN(c1ncnc3sccc13)CC2` [Compound 34, N-(2-methylpyrazol-3-yl)-6-thieno[2,3-d]pyrimidin-4-yl-7,8-dihydro-5H-1,6-naphthyridin-3-amine], the Emax at 30 µM was found to be 55% and the EC50 amounted to 0.1 µM.
As to `Cc1noc(C)c1-c1cnc2c(c1)CN(c1ncnc3sc(C(C)C)cc13)CC2` [Compound 35, 4-[6-(6-isopropylthieno[2,3-d]pyrimidin-4-yl)-7,8-dihydro-5H-1,6-naphthyridin-3-yl]-3,5-dimethyl-isoxazole], the Emax at 30 µM was 22% and the EC50 stood at 1.23 µM.
In the case of `[2H]c1csc2ncnc(N3CCc4ncc(C(F)(F)F)cc4C3)c12` [Compound 36, 5-deuterio-4-[3-(trifluoromethyl)-7,8-dihydro-5H-1,6-naphthyridin-6-yl]thieno[2,3-d]pyrimidine], the Emax at 30 µM was 78% and the EC50 worked out at 0.16 µM.
For `FC(F)(F)c1cnc2c(c1)CN(c1ncnc3scc(C4CC4)c13)CC2` [Compound 37, 5-cyclopropyl-4-[3-(trifluoromethyl)-7,8-dihydro-5H-1,6-naphthyridin-6-yl]thieno[2,3-d]pyrimidine], the Emax at 30 µM came out at 22% and the EC50 stood at 1.39 µM.
`Cc1coc2ncnc(N3CCc4ncc(-c5cnn(C6CC6)c5)cc4C3)c12` [Compound 38, 4-[3-(1-cyclopropylpyrazol-4-yl)-7,8-dihydro-5H-1,6-naphthyridin-6-yl]-5-methyl-furo[2,3-d]pyrimidine]: the maximal response (Emax) at 30 µM came out at 83% and the EC50 is 0.06 µM.
Take `Cc1coc2ncnc(N3CCc4ncc(Nc5cccnc5F)cc4C3)c12` [Compound 39, N-(2-fluoro-3-pyridyl)-6-(5-methylfuro[2,3-d]pyrimidin-4-yl)-7,8-dihydro-5H-1,6-naphthyridin-3-amine]: the Emax at 30 µM was found to be 94% and the EC50 turned out to be 0.08 µM.
As for `Cc1noc2ncnc(N3CCc4ncc(C(F)(F)F)cc4C3)c12` [Compound 40, 3-methyl-4-[3-(trifluoromethyl)-7,8-dihydro-5H-1,6-naphthyridin-6-yl]isoxazolo[5,4-d]pyrimidine], the Emax at 30 µM stood at 94% and the EC50 is 0.71 µM.
In the same order, the values of `Cc1coc2ncnc(N3CCc4ncc(C(F)(F)F)cc4C3)c12` [Compound 41, 5-methyl-4-[3-(trifluoromethyl)-7,8-dihydro-5H-1,6-naphthyridin-6-yl]furo[2,3-d]pyrimidine] are 86% and 0.05 µM.
In the same order, the values of `Cc1coc2ncnc(N3CCc4ncc(N5CCCn6nccc65)cc4C3)c12` [Compound 42, 4-[3-(6,7-dihydro-5H-pyrazolo[1,5-a]pyrimidin-4-yl)-7,8-dihydro-5H-1,6-naphthyridin-6-yl]-5-methyl-furo[2,3-d]pyrimidine] are 99% and 0.01 µM.
On to `Cc1nn(C)cc1-c1cnc2c(c1)CN(c1ncnc3onc(C)c13)CC2` [Compound 43, 4-[3-(1,3-dimethylpyrazol-4-yl)-7,8-dihydro-5H-1,6-naphthyridin-6-yl]-3-methyl-isoxazolo[5,4-d]pyrimidine], for which the Emax at 30 µM was 80% and the EC50 was 0.59 µM.
For `Cc1nn(C)cc1-c1cnc2c(c1)CN(c1ncnc3occ(C)c13)CC2` [Compound 44, 4-[3-(1,3-dimethylpyrazol-4-yl)-7,8-dihydro-5H-1,6-naphthyridin-6-yl]-5-methyl-furo[2,3-d]pyrimidine], the Emax at 30 µM worked out at 95% and the EC50 is 0.12 µM.
